Measured values reported in US11633414B2, “Nicotinoyl riboside compositions and methods of use” (Cornell University, priority 2005, dated 2023).
“Also recorded” adds a separate entry of the source. Like-named read-outs stand apart in the source and are kept apart here. One block for each compound: values may come before it.

Experiments:
Hela cells = assay: NAD+ content in cells after treatment with nicotinate riboside derivatives (HPLC, MALDI-MS with 18O-NAD+ standard); assay type: cell-based; settings: for 16O-NAD+ / [NAD+]/10^6 cell: 24 hrs; for [NAD+]/10^6 cell: control 618
Protocol: Synthesized compounds (NAR: Nicotinic acid riboside, O-ethyl-NR: ethyl-nicotinate riboside, Intermediate: TAENR, triacetyl-ethyl-nicotinate riboside, See FIG. 10) were added to the cells separately after 24 hours (no compound added for control). The cells were then incubated for another 24 hrs before harvest. Cells were trypsinized and an aliquot removed for counting. […] After mixing thoroughly, samples were pelleted and then neutralized with NaOH to make pH=7˜8. Samples were then centrifuged for 3 minutes and the supernatant (100 uL) was injected onto a C-18 column (Hitachi HPLC L2130 pump L2450 diode array detector) and separated to isolate the peak containing NAD+. The elution was collected during the NAD+ peak and the solution frozen and lyophilized.

[1] = system: Mouse embryonic stem cells; assay: Effects of statins on cell viability and mitigation of toxicity by nicotinamide riboside (cell counting and MTT assay); settings: for IC50: read-out: IC50 for statins in the absence of NR, apparently 7 days
[2] = system: Mouse embryonic stem cells; assay: Effect of NAR on mms mediated cell death (trypan blue counting); assay type: cell-based; settings: media supplemented with NAR 1 mM, mms 1 mM (FIG. 2)
Protocol: 1000 units/mL], named from #1 to #7. […] Mms (200 mM) was added to flask #2, 3, 4, 5, 6, 7 to make final concentration as 1 mM. Cell flask #1 is kept as a control, and used for passage. After 3 hrs incubation, fresh media was changed for flask #4, 5, 6, 7. And Cell #2, and 3 are harvested. After 6 hrs treatment of mms, Cell #4, 5 are harvested. And Cell #6, 7 are harvested at 9 hrs treatment of mms. The harvest cells (living ones) are counted for the percentage of death with trypan blue (see FIG. 2).

[3] = system: Mouse embryonic stem cells; assay: Increase of cellular NAD+ levels in cells grown on nicotinamide riboside (NAR) enriched medium; assay type: cell-based
Protocol: Mouse embryonic stem cells were plated onto cell culture flasks (250 mL, 75 cm^2) and grown to 50% confluence in 48 hours after passage. At 48 hours 2 flasks were set aside as controls and 2 flasks were used to determine effect of NAR on NAD+ biosynthesis. Cells were treated with 1M HClO4, and a specific amount of 180-NAM ([…]) and ^18O-NAD+. Samples were fractionated by HPLC and the fractions containing NAM and NAD+ were analyzed by ESI-MS and MALDI-MS respectively. Peak ratio (^16O/^18O) was used to quantitate NAM and NAD+ amounts in each sample. […] According to our measurement, the NAD+ level in NAR treated cells is 3886.6 pmoL/mg cell protein and nucleic acid content, and the NAD+ in control cells is only 1782.2 pmoL/mg cell protein and nucleic acid content. Cell protein and nucleic acid content were measured separately (see FIG. 3).

[4] = system: Mouse embryonic stem cells; assay: Cell survival after mms treatment and passage with/without NAR (haemocytometry); assay type: cell-based; settings: mms 1 mM 3 hrs, NAR 1 mM, counted after two days
Protocol: Mms (200 mM) was added to both flask #A and #B to make final concentration as 1 mM. After 3 hrs incubation, each cell culture (with/without NR treated) is passed to two new flasks with/without 1 mM of NAR. After two days incubation, count the culture survival in each of these 4 new flasks: mms/control media, mms/NAR media; mms+NAR/control media; mms+NAR/NAR media. It was found after mms treatment, the cultured cells are seriously damaged and only have a very low survival after passage. […] Cell counting by haemocytometry was used to determine survival versus cell number (see FIG. 4).

[5] = assay type: physicochemical
Protocol: The synthesis of nicotinoyl riboside compounds was initiated with the preparation of a preferred intermediate, ethyl 1-[3,4-diacetyloxy-5-(acetyloxymethyl)oxolan-2-yl]-pyridine-3-carboxylate. Nicotinic acid riboside O-alkyl derivatives were prepared from there. Refluxing of the protected sugar, 1,2,3,5-tetra-O-acetyl-β-D-ribofuranose with ethyl nicotinate (1.2 equiv.) in methylene chloride under the catalysis of TMSOTf (1 equiv.) stereoselectively formed β-isomer in good yield (>90%). One of the advantages for this method is that there is no need to go through the silylation of nicotinamide. After evaporation of the solvent, ethyl 1-[3,4-diacetyloxy-5-(acetyloxymethyl)oxolan-2-yl]-pyridine-3-carboxylate could be used directly for the next step. […] Extraction of ethyl acetate from water layer could get rid of most non-polar side products and give 95% of pure products according to TLC. Ethyl 1-[3,4-diacetyloxy-5-(acetyloxymethyl)oxolan-2-yl]-pyridine-3-carboxylate was also treated with NaOCH3/MeOH at −20° C. to form O-methyl nicotinate riboside. Other O-alkyl nicotinate ribosides were prepared similarly. O-Alkyl nicotinate ribosides can be hydrolyzed with esterase (from porcine liver, sigma) at pH=7.0 to afford clean nicotinic acid riboside. Reverse HPLC was used to detect and purify products.

Compound: O=C(O)c1ccc[n+]([C@@H]2O[C@H](CO)C(O)C2O)c1 (stereo partly drawn) [nicotinic acid riboside, β-Nicotinic acid riboside]
increase of NAD+ concentrations in cells (Hela cells; concentrations of Table 3): 60%

Compound: CCOC(=O)c1ccc[n+]([C@@H]2O[C@H](CO)[C@@H](O)[C@H]2O)c1 [O-ethyl NR, O-ethyl β-nicotinic riboside]
16O-NAD+ (Hela cells; 500 uM): 1084.1 pmol | [NAD+]/10^6 cell (Hela cells; 500 uM): 1004 pmoL | 16O-NAD+ (Hela cells; 803 uM): 2622.7 pmol | [NAD+]/10^6 cell (Hela cells; 803 uM): 2242 pmoL | increase over the control NAD+ content (Hela cells; 500 micromolar): 62% | NAD+ concentration in cells (Hela cells; 500 micromolar, untreated cells 618): 1004 μmol per million cells | increase in NAD+ concentration (Hela cells; 800 micromolar): approximately three

Compound: CC[C@H](C)C(=O)O[C@H]1C[C@@H](C)C=C2C=C[C@H](C)[C@H](CC[C@@H]3C[C@@H](O)CC(=O)O3)[C@H]21 [statin, lovastatin, reference compound]
IC50 ([1]; determined by MTT assay): 216 nM | IC50 ([1]; determined by cell counting): 248 nM | cell viability at the highest statin concentration ([1]; statin 10 μM, no NR group): almost completely non-viable

Compound: NC(=O)c1ccc[n+]([C@@H]2O[C@H](CO)C(O)C2O)c1 (stereo partly drawn) [NAR, β-nicotinamide riboside]
mitigation of statin toxicity ([1]; NR 500 μM in cell media, lovastatin, 2, 4 and 7 days, listed as NR): significantly reduces the toxicity of statin; also recorded: mitigates statin toxicity in a significant way | increase of IC50 of the statin in the presence of NR ([1]; NR 500 μM, after 4 and 7 days treatment): two to three | cell viability in the NR treated group versus no NR ([1]; cell counting and MTT assay, at virtually every statin concentration): significantly higher | viable cells at the highest statin concentration ([1]; statin 10 μM, NR treated group, cell counting and MTT assay): significant percentages of viable cells remain | cell survival [2]: improvement of cell survival | NAD+ level ([3]; NAR treated cells, control cells 1782.2): 3886.6 pmoL/mg cell protein and nucleic acid content | NAD+ concentration compared to the controls ([3]; NAR treated embryonic stem cells vs controls): higher concentration of NAD+; also recorded: increase of intracellular levels of nicotinamide adenine dinucleotide (NAD+) | culture survival after passage [4]: highest culture numbers

Compound: CCOC(=O)c1ccc[n+]([C@@H]2O[C@H](COC(C)=O)C(OC(C)=O)[C@@H]2OC(C)=O)c1 (stereo partly shown) [TAENR, ethyl 1-[3,4-diacetyloxy-5-(acetyloxymethyl)oxolan-2-yl]-pyridine-3-carboxylate]
16O-NAD+ (Hela cells; 750 uM): 4432.2 pmol | [NAD+]/10^6 cell (Hela cells; 750 uM): 2052 pmoL | increase of NAD+ concentrations in cells (Hela cells; concentration of Table 3 (750 uM)): three

water solubility [5]: extremely water-soluble
Compound: NC(=O)c1ccc[n+]([C@@H]2O[C@H](CO)[C@@H](O)[C@H]2O)c1 [NAR, β-nicotinamide riboside]
16O-NAD+ (Hela cells; 669 uM): 2201.2 pmol | [NAD+]/10^6 cell (Hela cells; 669 uM): 1079 pmoL
